Results as given in paper PMC10620186, “Recognition and reprogramming of E3 ubiquitin ligase surfaces by α-helical peptides” (Nature Communications, 2023).

What was measured:
[1] = biological target: CHIP-PPIA ternary complex (Homo sapiens, UniProt P62937+Q9UNE7); settings: SPR ABA, immobilized PPIA, 10 μM Helicon
VHL-ELOBC = VHL-ELOBC (Homo sapiens, UniProt P40337+Q15369+Q15370); settings: competition FP, 15 nM VHL-ELOBC, 5 nM HXC78, 1 h room temperature, n = 2
[2] = biological target: CHIP-TEAD4 ternary complex (Homo sapiens, UniProt Q15561+Q9UNE7); settings: SPR ABA, Rmax compared with expected response

**Q.** `CC(=O)N1CCC[C@H]1C(=O)N[C@@H](C)C(=O)N[C@@H](CCC(N)=O)C(=O)N[C@@H](CC(=O)O)C(=O)N[C@@H](CC(=O)O)C(=O)N[C@@H](Cc1c[nH]c2ccccc12)C(=O)N[C@@H](CO)C(=O)N[C@H]1CSCC(=O)Nc2ccc(cc2)NC(=O)CSC[C@@H](C(=O)N[C@@H](CCC(=O)O)C(=O)N[C@@H](CC(N)=O)C(=O)N[C@@H](Cc2ccc(O)cc2)C(=O)N[C@H](C(=O)N[C@@H](CCCNC(=N)N)C(=O)N[C@H](C(N)=O)C(C)C)C(C)C)NC(=O)[C@H](CC(C)C)NC(=O)[C@H](Cc2ccc(O)cc2)NC(=O)[C@H](C)NC(=O)[C@H](C)NC(=O)[C@H](CCC(=O)O)NC(=O)[C@H](C(C)C)NC1=O` [Helicon H326] was tested. Which “ternary complex formation with CHIP and PPIA, of the expected response” value [1] did it give?
**A.** Its value is 3%.

**Q.** For `CC[C@H](C)[C@H](NC(=O)[C@@H](NC(=O)CNC(=O)[C@H](CC(=O)O)NC(=O)[C@@H](NC(=O)[C@H](Cc1c[nH]c2ccccc12)NC(=O)[C@@H]1CSCC(=O)Nc2ccc(cc2)NC(=O)CSC[C@H](NC(=O)[C@H](CCSC)NC(=O)[C@@H]2CCCN2C(=O)[C@H](C)NC(=O)[C@H](CC(C)C)NC(=O)[C@H](CCSC)NC(=O)[C@H](CC(=O)O)NC(=O)[C@@H]2CCCN2C(C)=O)C(=O)NCC(=O)N2CCC[C@H]2C(=O)N[C@@H](C)C(=O)N[C@@H](C)C(=O)N[C@@H](CO)C(=O)N[C@@H]([C@@H](C)CC)C(=O)N1)[C@@H](C)CC)C(C)C)C(N)=O` [Helicon H328], which “ternary complex formation with CHIP and PPIA, of the expected response” value [1] is on record?
**A.** Its value is 11%.

**Q.** Which “competition with HXC78 for binding VHL-ELOBC” value (VHL-ELOBC) does the source give for `Cc1ncsc1-c1ccc(CNC(=O)[C@@H]2C[C@@H](O)CN2C(=O)[C@@H](NC(=O)C2(C#N)CC2)C(C)(C)C)cc1` [VH298, (2S,4R)−1-((S)−2-(1-Cyanocyclopropanecarboxamido)−3,3-dimethylbutanoyl)−4-hydroxy-N-(4-(4-methylthiazol-5-yl)benzyl)pyrrolidine-2-carboxamide] here?
**A.** Its value is “potently competes”.

**Q.** How did the “amount of ternary complex formed, CHIP and TEAD4” value [2] turn out when `CC(=O)N1CCC[C@H]1C(=O)N[C@H](C(=O)N1CCC[C@H]1C(=O)N[C@@H](Cc1ccccc1)C(=O)N[C@@H](Cc1ccccc1)C(=O)N[C@@H](Cc1c[nH]c2ccccc12)C(=O)N[C@@H](CCC(=O)O)C(=O)N[C@H]1CSCC(=O)Nc2ccc(cc2)NC(=O)CSC[C@@H](C(=O)N[C@H](C(=O)N[C@@H](C)C(=O)N2CCC[C@H]2C(=O)N[C@@H](CCCNC(=N)N)C(=O)N[C@H](C(=O)N[C@@H](CCC(N)=O)C(N)=O)C(C)C)[C@@H](C)O)NC(=O)[C@H]([C@@H](C)O)NC(=O)[C@H](C)NC(=O)[C@H](C)NC(=O)[C@H](C)NC(=O)[C@H](Cc2ccccc2)NC(=O)[C@H](CCC(N)=O)NC1=O)[C@@H](C)O` [Helicon H323] was run?
**A.** The value was 65%.
